This is an account of results in patent US11001562B2, “Near-infrared fluorescent nerve contrast agents and methods of use thereof” (Beth Israel Deaconess Medical Center, priority 2013, dated 2021).

Entries after “also recorded” stand apart in the source; their conditions may differ.

A short description of data set [1]: Optical property measurements (absorbance and fluorescence spectra). In kind it is physicochemical. As to conditions: 100% FBS with 50 mM HEPES, pH 7.4, 37° C. As for the experimental part: Absorbance and fluorescence spectra were obtained at a concentration of […] in 100% FBS supplemented with 50 mM HEPES, pH 7.4. B) Optical properties of Oxazine 4 were measured in PBS (pH 7.4), FBS (pH 7.4), MeOH, and DMSO.
Oxazine derivatives were obtained from Fisher Scientific Inc. (Pittsburgh, Pa.) or Sigma-Aldrich (Saint Louis, Mo.), and BMB was synthesized as described previously (25). Optical measurements were performed at 37° C. in phosphate-buffered saline (PBS), pH 7.4 or 100% fetal bovine serum (FBS) buffered with 50 mM HEPES, pH 7.4. Absorbance and fluorescence emission spectra were measured using fiber optic HR2000 absorbance (200-1100 nm) and USB2000FL fluorescence (350-1000 nm) spectrometers (Ocean Optics, Dunedin, Fla.). NIR excitation was provided by a 532 nm green laser pointer (Opcom Inc., Xiamen, China) set to 5 mW and coupled through a […] core diameter, NA 0.22 fiber (Fiberguide Industries, Stirling, N.J.). In silico calculation of the partition coefficient (log D at pH 7.4) was calculated using Marvin and J Chem calculator plugins (ChemAxon, Budapest, Hungary). Chemical similarities were calculated by Instant J Chem 6.04 using “Chemical Hashed Fingerprint” with the Normalized Euclidean dissimilarity screening configuration (ChemAxon).
All optical measurements were performed at 37° C. in phosphate-buffered saline (PBS), pH 7.4, 100% fetal bovine serum (FBS) buffered with 50 mM HEPES, pH 7.4, methanol (MeOH), or dimethyl sulfoxide (DMSO). Absorbance and fluorescence emission spectra of the series of NIR fluorophores were measured using fiber optic HR2000 absorbance (200-1100 nm) and USB2000FL fluorescence (350-1000 nm) spectrometers (Ocean Optics, Dunedin, Fla.). Excitation light was provided by a 532 nm green laser pointer (Opcom Inc., Xiamen, China) set to 5 mW and coupled through a 300 μm core diameter, NA 0.22 fiber (Fiberguide Industries, Stirling, N.J.). In silico calculation of the partition coefficient (log D at pH 7.4) was calculated using Marvin and J Chem calculator plugins (ChemAxon, Budapest, Hungary).

The test system of data set [2] is pig sciatic nerve tissue cross sections. The data set is described as follows: Ex vivo nerve-specific fluorophore screening on nerve tissue sections. As to conditions: for nerve-specific fluorescence signal in cross-sectioned nerve: 20 min incubation; for adipose uptake: both ex vivo and in vivo. On the procedure:
Phase contrast image (top) and fluorescence image (bottom) of nerve tissue sections incubated with 100 μM of test fluorophores are shown. Nerve-specific fluorescence intensity was determined using staining of pig sciatic nerve cut in cross section. Nerve tissue sections were incubated in 30% FBS solutions without (negative control, autofluorescence only) and with each fluorophore. As a positive control, previously reported nerve-specific BMB was used. Shown are phase contrast image (top) and fluorescence image (bottom) of nerve tissue sections incubated with 100 μM of each fluorophore. The control autofluorescence images were taken with equivalent exposure time and normalization. Arrowheads indicate fluorescence signals in nerve bundles. Ad=adipose tissue. Scale bars=200 μm. The SBR of each nerve relative to the neighboring adipose tissue was quantified and labeled as—, SBR<1; +, SBR=1−2; and ++, SBR >2.
Sciatic nerves from female Yorkshire pigs were harvested, fixed in 2% paraformaldehyde (PFA), and flash frozen in optimal cutting temperature (OCT) compound using liquid nitrogen. Nerve tissues were cut in cross section using a cryostat at […] thickness onto positively charge glass slides. Tissue sections were washed once with phosphate buffered saline (PBS) for 2 min to remove residual OCT. The tissue was then fixed to the slide with 2% PFA for 15 min, followed by washing with PBS (3×5 min). A formulation was previously developed for intravenous (IV) administration and was used in the current study to incubate the fluorophores with the nerve tissue (25). All fluorophores were mixed from the 100 mM stock solution into the IV formulation at 100 µM and incubated with the washed nerve tissue sections at room temperature for 20 min. Additional IV formulation not containing fluorophore was mixed and used to wash each nerve section twice (5 min per wash) following incubation with the formulated fluorophore. The nerve section was then washed an additional 2 times with PBS (5 min per each), after which coverslips were mounted using Fluoromount-G (Southern Biotech, Birmingham, Ala.).
NIR fluorescence microscopy for ex vivo nerve tissue slides was performed on a Nikon Eclipse TE300 microscope system as previously described (12, 19, 25). The microscope was equipped with a 100 W mercury light source, NIR-compatible optics, and a NIR-compatible 10× Plan Fluor objective lens and a 100× Plan Apo oil immersion objective lens (Nikon, Melville, N.Y.). Images were acquired on an Orca-AG (Hamamatsu, Bridgewater, N.J.). Image acquisition and analysis was performed using IPLab software (Scanalytics, Fairfax, Va.). A custom filter set (Chroma Technology Corporation, Brattleboro, Vt.) composed of a 650±22 nm excitation filter, a 675 nm dichroic mirror, and an 710±25 nm emission filter were used to detect Oxazine derivatives and Rhodamine 800 signals in the nerve tissue slides. For BMB, a mercury light source was passed through a 360±25 nm BP excitation filter, a 400 nm LP beam splitter, and a 550±50 nm emission filter.

The test system of data set [3] is rat brachial plexus and sciatic nerves. The experiment in a line: In vivo nerve-specificity screening with FLARE imaging. The conditions noted are these: for nerve-specific fluorescence signal in vivo: SD rats, 2 mg/kg (1 μmol) iv, 4 h after injection, brachial plexus and sciatic nerve. The source says:
The dual-NIR channel FLARE^a imaging system has been described in detail previously (26-28). In this study, a 670 nm excitation was used at a fluence rate of 4 mW/cm^2, with white light (400-650 nm) at 40,000 1×. Color and NIR fluorescence images were acquired simultaneously with custom software at rates up to 15 Hz over a 15 cm diameter field of view. A pseudo-colored lime green was used for NIR fluorescence in the color-NIR merged images. The imaging system was positioned at a distance of 18 inches from the surgical field.
Initial in vivo screening occurred in rats based on our previous study of BMB (Supplementary Methods) (25). For kinetic and dose-response studies, 50-400 nmol (0.8-6.3 mg/kg) of Oxazine 4 was injected intravenously into mice and measurements taken over 24 h. Control images were acquired prior to injecting NIR fluorophores. The fluorescence signal in nervous tissues and signal-to-background ratio (SBR) compared to neighboring muscle (Mu) were obtained over the period of imaging. For the large animal study, the optimal dose found in mice (200-400 nmol per mouse) was used in pigs by scaling to body surface area (29, 30).
Sprague-Dawley (SD) male rats weighing 250-300 g were purchased from Charles River Laboratories (Wilmington, Mass.). BMB, Oxazine 1, Oxazine 4, Oxazine 170, Oxazine 750, and Rhodamine 800 were initially screened to investigate nerve specificity in rats. For the initial screening, we administered a relatively high dose (2 mg/kg; 1 μmol) of each fluorophore intravenously. 4 h after injection, brachial plexus (BP) and sciatic nerve (SN) were imaged using the intraoperative FLARE^a system for in vivo nerve-specific fluorophores screening.

Where [4] appears, read: 100 μM fluorophore, pig sciatic nerve sections.
[5] abbreviates: comparison of structures in discussion.

Regarding `COc1cc(/C=C/c2ccc(N)cc2)ccc1/C=C/c1ccc(N)cc1` [BMB, reference compound], in data set [1], the “Abs (peak absorbance)” value stood at 397 nm, the “Em (peak emission)” value stood at 498 nm and the “λ (extinction coefficient)” value is listed as 52,800 M^−1cm^−1. For the same compound, in data set [2] (setting [4]), the “nerve-specific fluorescence signal in cross-sectioned nerve” value was “relatively high fluorescence signal in the nerve”, the “SBR of nerve relative to neighboring adipose tissue” value is reported as < 1 and the adipose fluorescence signal entry was “even higher than the target signal”. Also, the “nerve-specific fluorescence signal in vivo” value in data set [3] is on record as “nerve highlighting fluorophores”.

On to `CCN(CC)c1ccc2nc3ccc(=[N+](CC)CC)cc-3oc2c1` [Oxazine 1], for which, in data set [1], the “Abs (peak absorbance)” value is on record as 655 nm, the “Em (peak emission)” value stood at 670 nm and the “λ (extinction coefficient)” value is reported as 196,000 M^−1cm^−1. Besides, in data set [2] (setting [4]), the “nerve-specific fluorescence signal in cross-sectioned nerve” value was “did not show any nerve-specific fluorescence signal” and the adipose fluorescence signal entry is given as “adipose-specific fluorescence signal only”. Also, in data set [3], the “nerve-specific fluorescence signal in vivo” value was “weak signal in the vicinity of nerve”. For the same compound, in data set [3] (setting [5]), the “adipose signal (discussion summary)” value was “high adipose” and the “nerve signal (discussion summary)” value is recorded as “low nerve signal”.

For the compound `CC/N=c1/cc2oc3cc(NCC)c(C)cc3nc-2c2ccccc12` [Oxazine 170], in data set [1], the “Abs (peak absorbance)” value came to 625 nm, the “Em (peak emission)” value was 650 nm and the “λ (extinction coefficient)” value was 69,000 M^−1cm^−1. The “nerve-specific fluorescence signal in cross-sectioned nerve” value in data set [2] (setting [4]) is reported as “weak nerve-specific fluorescence signal”. For the same compound, the adipose uptake result in data set [2] is given as “strong adipose uptake; also recorded: high accumulation in adipose tissue”. In data set [3], the “nerve-specific fluorescence signal in vivo” value is “nerve highlighting fluorophores”.

`CC/N=c1/cc2oc3c4c5c(cc3nc-2c2ccccc12)CCCN5CCC4` [Oxazine 750]: in data set [1], the “Abs (peak absorbance)” value was found to be 676 nm, the “Em (peak emission)” value came to 684 nm and the “λ (extinction coefficient)” value was 44,000 M^−1cm^−1. Also, the “nerve-specific fluorescence signal in cross-sectioned nerve” value in data set [2] (setting [4]) is “strong fluorescence signal throughout the cross-sectioned nerve”. Also, the adipose uptake result in data set [2] is given as “strong adipose uptake”.

For `N#CC1=c2cc3c4c(c2Oc2c1cc1c5c2CCCN5CCC1)CCC[N+]=4CCC3` [Rhodamine 800], in data set [1], the “Abs (peak absorbance)” value worked out at 697 nm, the “Em (peak emission)” value turned out to be 710 nm and the “λ (extinction coefficient)” value was 68,000 M^−1cm^−1. The “nerve-specific fluorescence signal in cross-sectioned nerve” value in data set [2] (setting [4]) is listed as “strong fluorescence signal throughout the cross-sectioned nerve”. In addition, the “uptake in / targeting of nerve” value in data set [3] (summary statement related to log D) was “low and low targeting affinity to the nerve”.
